Measured values: patent publication US10556943B2, “HLA-DR binding peptides and their uses” (priority 2007, dated 2020)
Where two headings read alike, the source gives them in different places. Each block holds one compound with its values, some of them ahead of it.

Legend:
purified HLA DRB1*0405 = biological target: T1, purified HLA DRB1*0405 (Homo sapiens, UniProt P01903+P01911, A100R/A169T/D86S/F76Y/I96L/K127E/L162R/M171V/N62H/P40V/Q125Y/R42H/S133A/S149N/S66Y/V115G/V209L/W38E); assay: HLA-DR radioligand binding inhibition assay, DRB1*0405
T1 construct: MHC molecules utilized were purified from EBV transformed homozygous cell lines or single MHC allele transfected 721.221, C1R, or fibroblast lines; made in house; host or cells: EBV transformed homozygous cell lines or single MHC allele transfected 721.221, C1R, or fibroblast lines
Experimental: (§1) Fifteen distinct HLA-DR molecules were used in quantitative assays to measure the binding of peptides to solubilized HLA-DR molecules. […] Briefly, columns of inactivated Sepharose CL4B and Protein A Sepharose were used as pre-columns. HLA-DR molecules were captured by passage of lysates over LB3.1 monoclonal antibody (anti-HLA-DRA) columns. Antibody columns were washed with 10 mM Tris-HCL, pH8.0 with 1% (v/v) NP-40, followed by PBS containing 0.4% (w/v) n-octylglucoside. […] The pH was reduced to 8.0 and the eluates were concentrated by centrifugation in Centriprep 30 concentrators at 2000 rpm (Amicon, Beverly, Mass.).
(§2) Briefly, 1-10 nM of radiolabeled peptide was co-incubated for 2 days at either room temperature or 37° C. with 1 μM to 1 nM purified HLA-DR molecules in the presence of a cocktail of protease inhibitors. Assays were performed at various pH conditions, ranging from pH 4 to pH 7. […] After incubation, the percentage of HLA-DR-bound radioactivity is determined by capturing HLA-DR/peptide complexes on Optiplates (Packard Instruments, Meriden, Conn.) coated with the LB3.1 antibody and determining bound counts per minute using the TopCount microscintillation counter (Packard Instruments). […] Competitor peptides are tested in 2-4 complete, independent experiments, at concentrations ranging from 30 μg/mL to 300 pg/mL.

purified HLA DRB1*0404 = biological target: T2, purified HLA DRB1*0404 (Homo sapiens, UniProt P01903+P01911, A100R/A169T/F76Y/I96L/K127E/L162R/M171V/N62H/P40V/Q125Y/R42H/S133A/S149N/S66Y/V209L/W38E); assay: HLA-DR radioligand binding inhibition assay, DRB1*0404; settings: read-out: IC50 to purified HLA DRB1*0404; purified HLA DRB1*0404
T2 construct: MHC molecules utilized were purified from EBV transformed homozygous cell lines or single MHC allele transfected 721.221, C1R, or fibroblast lines; made in house; host or cells: EBV transformed homozygous cell lines or single MHC allele transfected 721.221, C1R, or fibroblast lines
Experimental: as §1, §2

purified HLA DRB4*0101 = biological target: T3, purified HLA DRB4*0101 (Homo sapiens, UniProt P01903+P13762, G164S); assay: HLA-DR radioligand binding inhibition assay, DRB4*0101
T3 construct: MHC molecules utilized were purified from EBV transformed homozygous cell lines or single MHC allele transfected 721.221, C1R, or fibroblast lines; made in house; host or cells: EBV transformed homozygous cell lines or single MHC allele transfected 721.221, C1R, or fibroblast lines
Experimental: as §1, §2

purified HLA DRB1*0401 = biological target: T4, purified HLA DRB1*0401 (Homo sapiens, UniProt P01903+P01911, A100K/A169T/F76Y/I96L/K127E/L162R/M171V/N62H/P40V/Q125Y/R42H/S133A/S149N/S66Y/V115G/V209L/W38E); assay: HLA-DR radioligand binding inhibition assay, DRB1*0401; settings: read-out: IC50 to purified HLA DRB1*0401; purified HLA DRB1*0401
T4 construct: MHC molecules utilized were purified from EBV transformed homozygous cell lines or single MHC allele transfected 721.221, C1R, or fibroblast lines; made in house; host or cells: EBV transformed homozygous cell lines or single MHC allele transfected 721.221, C1R, or fibroblast lines
Experimental: as §1, §2

purified HLA DRB3*0101 = biological target: T5, purified HLA DRB3*0101 (Homo sapiens, UniProt P01903+P79483); assay: HLA-DR radioligand binding inhibition assay, DRB3*0101
T5 construct: MHC molecules utilized were purified from EBV transformed homozygous cell lines or single MHC allele transfected 721.221, C1R, or fibroblast lines; made in house; host or cells: EBV transformed homozygous cell lines or single MHC allele transfected 721.221, C1R, or fibroblast lines
Experimental: as §1, §2

SMILES: CC(C)C[C@H](NC(=O)[C@H](CC(=O)O)NC(=O)[C@H](CCCNC(=N)N)NC(=O)[C@@H](N)Cc1c[nH]cn1)C(=O)N[C@@H](C)C(=O)N[C@@H](C)C(=O)N[C@@H](CCCNC(=N)N)C(=O)N[C@@H](CC(N)=O)C(=O)N[C@H](C(=O)N[C@@H](CC(C)C)C(=O)N[C@H](C(=O)N[C@@H](CCCCN)C(=O)N[C@@H](CO)C(=O)N1CCC[C@H]1C(=O)N[C@@H](CC(N)=O)C(=O)O)C(C)C)C(C)C [Peptide 9019.0085]
IC50 (purified HLA DRB1*0405): 11.2 µM

SMILES: CC(C)C[C@H](NC(=O)[C@@H](NC(=O)[C@H](CS)NC(=O)[C@H](CO)NC(=O)CNC(=O)[C@@H](NC(=O)[C@H](CC(=O)O)NC(=O)[C@@H](NC(=O)[C@@H](N)CO)[C@@H](C)O)C(C)C)[C@@H](C)O)C(=O)N[C@H](C(=O)N[C@@H](CS)C(=O)N1CCC[C@H]1C(=O)N[C@@H](CC(C)C)C(=O)N[C@@H](Cc1c[nH]cn1)C(=O)N[C@@H](CC(N)=O)C(=O)O)C(C)C [Peptide 9019.0043]
IC50 (purified HLA DRB1*0401): > 20 µM

SMILES: CC[C@H](C)[C@H](NC(=O)[C@H](CCCCN)NC(=O)[C@H](CCC(N)=O)NC(=O)[C@@H](N)CCC(N)=O)C(=O)N[C@@H](CCCNC(=N)N)C(=O)N[C@@H](CCCCN)C(=O)N[C@@H](Cc1ccc(O)cc1)C(=O)N[C@H](C(=O)N[C@@H](CCSC)C(=O)N[C@@H](CCCNC(=N)N)C(=O)N[C@@H](CCCNC(=N)N)C(=O)N[C@@H](CC(C)C)C(=O)N[C@@H](CC(C)C)C(=O)N[C@@H](CCC(N)=O)C(=O)N[C@@H](CCC(=O)O)C(=O)O)[C@@H](C)O [Peptide 9019.0070]
IC50 (purified HLA DRB1*0405): > 20 µM

SMILES: CSCC[C@H](NC(=O)[C@H](CCCNC(=N)N)NC(=O)[C@H](CO)NC(=O)[C@H](Cc1ccccc1)NC(=O)[C@H](CCC(=O)O)NC(=O)[C@H](CO)NC(=O)[C@@H](NC(=O)[C@H](CC(C)C)NC(=O)[C@H](CCC(=O)O)NC(=O)[C@H](CCCNC(=N)N)NC(=O)[C@H](Cc1ccccc1)NC(=O)[C@H](CCCNC(=N)N)NC(=O)[C@@H]1CCCN1C(=O)[C@@H](N)CCCNC(=N)N)C(C)C)C(=O)N[C@@H](C)C(=O)O [Peptide 9019.0095]
IC50 (purified HLA DRB3*0101): > 20 µM

More lines, now with the values ahead:

IC50 (purified HLA DRB1*0405; read-out: IC50 to purified HLA DRB1*0405, purified HLA DRB1*0405): > 20 µM
IC50 (purified HLA DRB1*0404): 13.1 µM
SMILES: CSCC[C@H](NC(=O)[C@H](CCCNC(=N)N)NC(=O)[C@H](C)NC(=O)CN)C(=O)N1CCC[C@H]1C(=O)N[C@@H](CS)C(=O)N[C@@H](C)C(=O)N[C@@H](CCC(=O)O)C(=O)N[C@@H](CC(C)C)C(=O)N[C@H](C(=O)N[C@@H](CCCNC(=N)N)C(=O)N[C@@H](CCC(=O)O)C(=O)N1CCC[C@H]1C(=O)NCC(=O)N[C@@H](CS)C(=O)O)C(C)C [Peptide 9019.0181]

IC50 (purified HLA DRB4*0101): > 20 µM
SMILES: CSCC[C@H](NC(=O)[C@H](CC(C)C)NC(=O)[C@H](CCC(=O)O)NC(=O)[C@H](Cc1c[nH]c2ccccc12)NC(=O)[C@@H](NC(=O)[C@@H](NC(=O)[C@@H](NC(=O)CNC(=O)[C@H](Cc1ccc(O)cc1)NC(=O)[C@H](CO)NC(=O)[C@H](Cc1c[nH]c2ccccc12)NC(=O)[C@@H](NC(=O)[C@H](CC(=O)O)NC(=O)[C@@H](N)CO)C(C)C)C(C)C)[C@@H](C)O)C(C)C)C(=O)N[C@H](C(=O)O)[C@@H](C)O [Peptide 9019.0089]
